What all share (format): cell-based, human
For assay [1], the system named is MART-126-35-specific CTL clone M26-H1. Nature of the assay: Saturation mutagenesis APL screen: bead-based cross-presentation by immature dendritic cells, IFN-γ sandwich ELISA. To be noted: 200 μl bacterial cultures, 88 clones, CTL clone M26-H1, FIG. 2.
The test system of assay [2] is CD-4+ cells. The assay can be described thus: NY-ESO-1 APL cross-presented mini-gene products, IFN-γ ELISA, CD-4+ cells (FIG. 8A). The procedure:
FIG. 8A. Native and superagonist CTL determinants can be distinguished in bead-based cross presentation assay. Oligonucleotides encoding NY-ESO-1157-170 were cloned into and expressed by pQE40 expression vectors. The mini-gene products were isolated and “fed” to immature dendritic cells as described in the Examples. NY-ESO-1157-170-specific CTL clones were used to detect the presence of the cross-presented mini-gene products (NY-ESO-1157-170). Induced IFN-γ expression was determined by standard sandwich ELISA. Synthetic wild-type peptide was used a positive control. […] Results for CD-4+ cells are shown.
FIG. 8A and FIG. 8B show the ability of several NY-ES0-1APL to stimulate CD-4^| fractions (FIG. 8A) and PBMC (FIG. 8B).
In general terms: In an ELISA, binding on a coated surface is turned into a signal by an enzyme label.

Assay [3] relates to A375 (HLA-A2+/NY-ESO-1+) melanoma cell line. Nature of the assay: In vitro cytotoxicity assay (51Cr release) by polyclonal CTL lines generated with analog peptides; target A375. The procedure: (§1) Isolated cells were replicated using 30 ng/ml anti-CD3 antibody (OKT3) and IL-2 at 50 U/ml in the presence of irradiated feeder PBMC and LCL for 2 weeks. IL-2 was replenished every 2-3 days.
(§2) Target cells were labeled with 100 μCi of ^51Cr and co-cultured with effector cells for 4 hours at 37° C. plus 5% CO2. […] Released ^51Cr was measured with a gamma scintillation counter and percent specific lysis was determined by using the formula: percent specific release=(experimental release-spontaneous release)/(maximum release-spontaneous release). […]
(§3) “ND” is not done. T2 is a TAP-deficient cell line that expresses peptide-unbound HLA-A2 molecules unless pulsed extracellularly. […] Numbers represent the percentage specific lysis obtained from each target. T375 is a HLA-A2 positive/MART-1 negative cell line.

In assay [4] the test system is T2 cells pulsed with 1 μM of MART-126-35. Nature of the assay: In vitro cytotoxicity assay (51Cr release) by polyclonal CTL lines generated with analog peptides; target T2 pulsed with MART-126-35 (M26). The procedure: as §1, §2, §3
Assay [5] deals with T2 cells pulsed with NY-ESO-1157-165. Nature of the assay: In vitro cytotoxicity assay (51Cr release) by polyclonal CTL lines generated with analog peptides; target T2 pulsed with NY-ESO-1157-165 (negative control). The settings on record: target T2 (pulsed with NYESO-1157-165). The procedure: as §1, §2, §3
The test system of assay [6] is Mel 526 (HLA-A2+/MART-1+) melanoma cell line. Nature of the assay: In vitro cytotoxicity assay (51Cr release) by polyclonal CTL lines generated with analog peptides; target Mel 526. To be noted: target Mel526. How it is done:
as §1, §2, §3

[7] abbreviates: CTL line from Healthy1, E/T 12.5.
[8] abbreviates: CTL line from MelPt-B, E/T 12.5.
The mark [9] stands for this setting: CTL line from MelPt-C, E/T 12.5.
[10] abbreviates: CTL line from MelPt-D, E/T 12.5.
[11] abbreviates: CTL line from MelPt-F, E/T 12.5.

“A27M: APL clones of MART-126-35 containing methionine residues at P2; previously described superagonist”: the “IFN-γ expression in P2 library screen of MART-126-35” value in assay [1] is given as “greater IFN-γ expression than wild type MART-126-35”.

For “F170W: NY-ESO-1157-170 APL F170W (SLLMWITQCFLPVW)”, the “Stimulation of CD-4+ cells” value in assay [2] was “most effective”.

With “I162Q: NY-ESO-1157-170 APL I162Q (SLLMWQTQCFLPVF)”, in assay [2], the “Stimulation of CD-4+ cells” value is given as “most effective”.

Turning to “MART-126-35L33M (EAAGIGIMTV; UniProt Q16655 26-35, looked up, variant L33M)”, the “Percentage Specific Lysis from polyclonal CTL lines generated with the indicated peptide” value (“Percentage Specific Lysis” for short) in assay [3] (setting [7]) is reported as 10%; in assay [3] (CTL line from Healthy1, E/T 25) it was 13%; in assay [3] (CTL line from Healthy1, E/T 50) it was 13%; in assay [3] (setting [8]), 9%; in assay [3] (CTL line from MelPt-B, E/T 25), 12%; in assay [3] (CTL line from MelPt-B, E/T 50), 13%. The “Percentage Specific Lysis” value was found to be 5% in assay [3] (setting [9]); 2% in assay [3] (CTL line from MelPt-C, E/T 25); 0% in assay [3] (CTL line from MelPt-C, E/T 50); 6% in assay [3] (setting [10]); 4% in assay [3] (CTL line from MelPt-D, E/T 25); 2% in assay [3] (CTL line from MelPt-D, E/T 50). Besides, the “Percentage Specific Lysis” value in assay [3] (setting [11]) came to 5%; in assay [3] (CTL line from MelPt-F, E/T 25) it was 3%; in assay [3] (CTL line from MelPt-F, E/T 50), 2%; in assay [4] (setting [7]), 38%; in assay [4] (CTL line from Healthy1, E/T 25), 49%; in assay [4] (CTL line from Healthy1, E/T 50) it was 57%. Moreover, the “Percentage Specific Lysis” value in assay [4] (setting [8]) amounted to 41%; in assay [4] (CTL line from MelPt-B, E/T 25) it was 52%; in assay [4] (CTL line from MelPt-B, E/T 50) it was 63%; in assay [4] (setting [9]), 76%; in assay [4] (CTL line from MelPt-C, E/T 25), 84%; in assay [4] (CTL line from MelPt-C, E/T 50), 91%. For the same substance, the “Percentage Specific Lysis” value is reported as 75% in assay [4] (setting [10]); 84% in assay [4] (CTL line from MelPt-D, E/T 25); 90% in assay [4] (CTL line from MelPt-D, E/T 50); 65% in assay [4] (setting [11]); 72% in assay [4] (CTL line from MelPt-F, E/T 25); 70% in assay [4] (CTL line from MelPt-F, E/T 50). In addition, the “Percentage Specific Lysis” value was found to be 5% in assay [5] (setting [7]); 6% in assay [5] (CTL line from Healthy1, E/T 25); 2% in assay [5] (CTL line from Healthy1, E/T 50); 4% in assay [5] (setting [8]); 2% in assay [5] (CTL line from MelPt-B, E/T 25); 2% in assay [5] (CTL line from MelPt-B, E/T 50). For the same substance, the “Percentage Specific Lysis” value was 11% in assay [5] (setting [9]); 12% in assay [5] (CTL line from MelPt-C, E/T 25); 9% in assay [5] (CTL line from MelPt-C, E/T 50); 8% in assay [5] (setting [10]); 11% in assay [5] (CTL line from MelPt-D, E/T 25); 14% in assay [5] (CTL line from MelPt-D, E/T 50). The “Percentage Specific Lysis” value in assay [5] (setting [11]) is 22%; in assay [5] (CTL line from MelPt-F, E/T 25) it was 21%; in assay [5] (CTL line from MelPt-F, E/T 50) it was 23%; in assay [6] (setting [7]) it was 44%; in assay [6] (CTL line from Healthy1, E/T 25), 57%; in assay [6] (CTL line from Healthy1, E/T 50), 65%. Also, the “Percentage Specific Lysis” value in assay [6] (setting [8]) is reported as 58%; in assay [6] (CTL line from MelPt-B, E/T 25), 70%; in assay [6] (CTL line from MelPt-B, E/T 50), 80%; in assay [6] (setting [9]), 45%; in assay [6] (CTL line from MelPt-C, E/T 25), 52%; in assay [6] (CTL line from MelPt-C, E/T 50) it was 58%. In addition, the “Percentage Specific Lysis” value in assay [6] (setting [10]) is 45%; in assay [6] (CTL line from MelPt-D, E/T 25) it was 54%; in assay [6] (CTL line from MelPt-D, E/T 50), 57%; in assay [6] (setting [11]) it was 38%; in assay [6] (CTL line from MelPt-F, E/T 25) it was 42%; in assay [6] (CTL line from MelPt-F, E/T 50), 44%.

Take “Q164S: NY-ESO-1157-170 APL Q164S (SLLMWITSCFLPVF)”: in assay [2], the “Stimulation of CD-4+ cells” value was “most effective”.

Source of the values: patent publication US10328135B2, “Method of obtaining cytolytic T cells by using mutant tumor epitopes” (priority 2010, dated 2019).
